Consider 22 compounds from patent publication US20210300924A1, “5-[6-[[3-(4,5,6,7-TETRAHYDROPYRAZOLO[4,3-C]PYRIDIN-1-YL)AZETIDIN-1-YL]METHYL]MORPHOLIN-4-YL]QUINOLINE-8-CARBONITRILE DERIVATIVES AND SIMILAR COMPOUNDS AS TLR7-9 ANTAGONISTS FOR TREATING SYSTEMIC LUPUS ERYTHEMATOSUS” (Hoffmann-La Roche Inc., priority 2018, published 2021).

This assay addresses T1, human TLR8 (Homo sapiens, UniProt Q9NR97).
T1 construct: host or cells: HEK293 (HEK-Blue hTLR8)
T1 sequence (Q9NR97 27-1041): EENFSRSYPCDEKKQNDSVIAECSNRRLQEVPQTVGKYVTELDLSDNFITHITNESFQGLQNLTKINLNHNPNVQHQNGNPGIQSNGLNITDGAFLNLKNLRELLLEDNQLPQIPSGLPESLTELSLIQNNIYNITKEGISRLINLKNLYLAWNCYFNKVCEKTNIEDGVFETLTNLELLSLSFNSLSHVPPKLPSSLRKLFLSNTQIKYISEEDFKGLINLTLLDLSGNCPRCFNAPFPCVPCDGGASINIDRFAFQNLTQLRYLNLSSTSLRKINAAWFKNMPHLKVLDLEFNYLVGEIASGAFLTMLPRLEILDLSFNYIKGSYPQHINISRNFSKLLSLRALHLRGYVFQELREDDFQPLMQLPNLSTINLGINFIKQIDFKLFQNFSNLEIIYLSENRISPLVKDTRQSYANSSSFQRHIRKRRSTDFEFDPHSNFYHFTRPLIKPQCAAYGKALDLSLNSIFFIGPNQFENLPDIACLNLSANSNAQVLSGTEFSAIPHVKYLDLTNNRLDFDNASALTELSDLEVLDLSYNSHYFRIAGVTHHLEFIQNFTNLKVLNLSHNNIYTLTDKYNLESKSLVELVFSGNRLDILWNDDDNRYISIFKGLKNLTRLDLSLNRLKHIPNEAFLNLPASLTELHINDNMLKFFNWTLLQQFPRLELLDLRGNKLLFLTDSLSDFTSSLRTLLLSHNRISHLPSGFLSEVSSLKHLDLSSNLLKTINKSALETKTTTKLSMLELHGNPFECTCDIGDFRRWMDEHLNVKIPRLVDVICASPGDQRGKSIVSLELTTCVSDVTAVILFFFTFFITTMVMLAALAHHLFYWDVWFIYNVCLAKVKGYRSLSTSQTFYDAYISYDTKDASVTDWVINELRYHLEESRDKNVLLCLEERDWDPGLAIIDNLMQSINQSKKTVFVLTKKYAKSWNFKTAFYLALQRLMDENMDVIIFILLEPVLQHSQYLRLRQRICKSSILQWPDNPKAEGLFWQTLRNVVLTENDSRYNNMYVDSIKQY
In words: HEK293-Blue-hTLR-8 cells assay. It counts as cell-based. The following applies: HEK293-Blue-hTLR8 cells, R848 stimulation, 20 hrs, SEAP reporter; read-out: HEK/hTLR8 IC50. An excerpt:
A stable HEK293-Blue-hTLR-8 cell line was purchased from InvivoGen (Cat. #: hkb-htlr8, San Diego, Calif., USA). These cells were originally designed for studying the stimulation of human TLR8 by monitoring the activation of NF-κB. A SEAP (secreted embryonic alkaline phosphatase) reporter gene was placed under the control of the IFN-β minimal promoter fused to five NF-κB and AP-1-binding sites. The SEAP was induced by activating NF-κB and AP-1 via stimulating HEK-Blue hTLR8 cells with TLR8 ligands. Therefore the reporter expression was declined by TLR8 antagonist under the stimulation of a ligand, such as R848, for incubation of 20 hrs. The cell culture supernatant SEAP reporter activity was determined using QUANTI-Blue™ kit (Cat. #: rep-qb1, Invivogen, San Diego, Ca, USA) at a wavelength of 640 nm, a detection medium that turns purple or blue in the presence of alkaline phosphatase.
HEK293-Blue-hTLR8 cells were incubated at a density of 250,000-450,000 cells/mL in a volume of 170 μL in a 96-well plate in Dulbecco's Modified Eagle's medium (DMEM) containing 4.5 g/L glucose, 50 U/mL penicillin, […], […], 2 mM L-glutamine, 10% (v/v) heat-inactivated fetal bovine serum with addition of 20 μL test compound in a serial dilution in the presence of final DMSO at 1% and 10 μL of 60 uM R848 in above DMEM, perform incubation under 37° C. in a CO2 incubator for 20 hrs. Then 20 μL of the supernatant from each well was incubated with […] Quanti-blue substrate solution at 37° C. for 2 hrs and the absorbance was read at 620-655 nm using a spectrophotometer. The signaling pathway that TLR8 activation leads to downstream NF-κB activation has been widely accepted, and therefore similar reporter assay was modified for evaluating TLR8 antagonist.
On to `CCN1CCc2cn(C3CN(C[C@H]4CN(c5ccc(C#N)c6ncccc56)C[C@@H](C)O4)C3)nc2C1` [Example 7, 5-[(2S,6R)-2-[[3-(6-ethyl-5,7-dihydro-4H-pyrazolo[3,4-c]pyridin-2-yl)azetidin-1-yl]methyl]-6-methyl-morpholin-4-yl]quinoline-8-carbonitrile], for which the IC50 was determined as 0.005 µM. As to `C[C@@H]1CN(c2ccc(C#N)c3ncccc23)C[C@H](CN2CC(n3ncc4c3CCN[C@H]4C)C2)O1` [Example 22, 5-[(2R,6S)-2-methyl-6-[[3-[(4S)-4-methyl-4,5,6,7-tetrahydropyrazolo[4,3-c]pyridin-1-yl]azetidin-1-yl]methyl]morpholin-4-yl]quinoline-8-carbonitrile], the IC50 was determined as 0.037 µM.

Take `C[C@@H]1Cc2nn(C3CN(C[C@H]4CN(c5ccc(C#N)c6ncccc56)C[C@@H](C)O4)C3)cc2CN1` [Example 17, 5-[(2R,6S)-2-methyl-6-[[3-[(6R)-6-methyl-4,5,6,7-tetrahydropyrazolo[4,3-c]pyridin-2-yl]azetidin-1-yl]methyl]morpholin-4-yl]quinoline-8-carbonitrile]: the IC50 worked out at 0.018 µM. For the compound `C[C@@H]1CN(c2ccc(C#N)c3ncccc23)C[C@H](CN2CC(n3cc4c(n3)C[C@H](C)NC4)C2)O1` [Example 19, 5-[(2R,6S)-2-methyl-6-[[3-[(6S)-6-methyl-4,5,6,7-tetrahydropyrazolo[4,3-c]pyridin-2-yl]azetidin-1-yl]methyl]morpholin-4-yl]quinoline-8-carbonitrile], the IC50 is 0.022 µM. Take `CCN1CCc2cnn(C3CN(C[C@H]4CN(c5ccc(C#N)c6ncccc56)C[C@@H](C)O4)C3)c2C1` [Example 6, 5-[(2S,6R)-2-[[3-(6-ethyl-5,7-dihydro-4H-pyrazolo[3,4-c]pyridin-1-yl)azetidin-1-yl]methyl]-6-methyl-morpholin-4-yl]quinoline-8-carbonitrile]: the IC50 came to 0.005 µM. In the case of `C[C@@H]1CN(c2ccc(C#N)c3ncccc23)C[C@H](CN2CC(n3cc4c(n3)CCNC4)C2)O1` [Example 2, 5-[(2R,6S)-2-methyl-6-[[3-(4,5,6,7-tetrahydropyrazolo[4,3-c]pyridin-2-yl)azetidin-1-yl]methyl]morpholin-4-yl]quinoline-8-carbonitrile], the IC50 is 0.019 µM.

Consider `C[C@@H]1CN(c2ccc(C#N)c3ncccc23)C[C@H](CN2CC(n3ncc4c3[C@H](C)NCC4)C2)O1` (single isomer, unassigned) [Example 32], for which the IC50 was 0.01 µM. Consider `Cc1c2c(nn1C1CN(C[C@H]3CN(c4ccc(C#N)c5ncccc45)C[C@@H](C)O3)C1)CNCC2` [Example 43, 5-[(2R,6S)-2-methyl-6-[[3-(3-methyl-4,5,6,7-tetrahydropyrazolo[3,4-c]pyridin-2-yl)azetidin-1-yl]methyl]morpholin-4-yl]quinoline-8-carbonitrile], for which the IC50 was found to be 0.034 µM.

Take `C[C@@H]1CN(c2ccc(C#N)c3ncccc23)C[C@H](CN2CC(n3ncc4c3CCN[C@@H]4C)C2)O1` [Example 20, 5-[(2R,6S)-2-methyl-6-[[3-[(4R)-4-methyl-4,5,6,7-tetrahydropyrazolo[4,3-c]pyridin-1-yl]azetidin-1-yl]methyl]morpholin-4-yl]quinoline-8-carbonitrile]: the IC50 amounted to 0.028 µM. In the case of `C[C@@H]1CN(c2ccc(C#N)c3ncccc23)C[C@H](CN2CC(n3cc4c(n3)[C@@H](C)CNC4)C2)O1` (single isomer, unassigned) [Example 26] it was 0.012 µM; in that of `C[C@@H]1CN(c2ccc(C#N)c3ncccc23)C[C@H](CN2CC(n3cc4c(n3)CNCC4)C2)O1` [Example 4, 5-[(2R,6S)-2-methyl-6-[[3-(4,5,6,7-tetrahydropyrazolo[3,4-c]pyridin-2-yl)azetidin-1-yl]methyl]morpholin-4-yl]quinoline-8-carbonitrile], 0.009 µM; in that of `C[C@@H]1Cc2cnn(C3CN(C[C@H]4CN(c5ccc(C#N)c6ncccc56)C[C@@H](C)O4)C3)c2CN1` (single isomer, unassigned) [Example 28], 0.01 µM. With `Cc1nn(C2CN(C[C@H]3CN(c4ccc(C#N)c5ncccc45)C[C@@H](C)O3)C2)c2c1CCNC2` [Example 42, 5-[(2R,6S)-2-methyl-6-[[3-(3-methyl-4,5,6,7-tetrahydropyrazolo[3,4-c]pyridin-1-yl)azetidin-1-yl]methyl]morpholin-4-yl]quinoline-8-carbonitrile] the figure was 0.018 µM; with `C[C@@H]1CN(c2ccc(C#N)c3ncccc23)C[C@H](CN2CC(n3ncc4c3C[C@H](C)NC4)C2)O1` [Example 18, 5-[(2R,6S)-2-methyl-6-[[3-[(6S)-6-methyl-4,5,6,7-tetrahydropyrazolo[4,3-c]pyridin-1-yl]azetidin-1-yl]methyl]morpholin-4-yl]quinoline-8-carbonitrile], 0.019 µM. In the case of `Cc1nn(C2CN(C[C@H]3CN(c4ccc(C#N)c5ncccc45)C[C@@H](C)O3)C2)c2c1CN(C)CC2` [Example 14, 5-[(2S,6R)-2-[[3-(3,5-dimethyl-6,7-dihydro-4H-pyrazolo[4,3-c]pyridin-1-yl)azetidin-1-yl]methyl]-6-methyl-morpholin-4-yl]quinoline-8-carbonitrile] it was 0.01 µM. In the case of `Cc1c2c(nn1C1CN(C[C@H]3CN(c4ccc(C#N)c5ncccc45)C[C@@H](C)O3)C1)CCN(C)C2` [Example 15, 5-[(2S,6R)-2-[[3-(3,5-dimethyl-6,7-dihydro-4H-pyrazolo[4,3-c]pyridin-2-yl)azetidin-1-yl]methyl]-6-methyl-morpholin-4-yl]quinoline-8-carbonitrile], the IC50 stood at 0.009 µM.

`C[C@@H]1Cc2cn(C3CN(C[C@H]4CN(c5ccc(C#N)c6ncccc56)C[C@@H](C)O4)C3)nc2CN1` (single isomer, unassigned) [Example 30]: the IC50 amounted to 0.014 µM. As for `C[C@@H]1CN(c2ccc(C#N)c3ncccc23)C[C@H](CN2CC(n3ncc4c3[C@@H](C)NCC4)C2)O1` (single isomer, unassigned) [Example 31], the IC50 was found to be 0.005 µM. In the case of `CC(C)N1CCc2cn(C3CN(C[C@H]4CN(c5ccc(C#N)c6ncccc56)C[C@@H](C)O4)C3)nc2C1` [Example 9, 5-[(2S,6R)-2-[[3-(6-isopropyl-5,7-dihydro-4H-pyrazolo[3,4-c]pyridin-2-yl)azetidin-1-yl]methyl]-6-methyl-morpholin-4-yl]quinoline-8-carbonitrile] it was 0.007 µM. Regarding `C[C@@H]1CN(c2ccc(C#N)c3ncccc23)C[C@H](CN2CC(n3ncc4c3CNCC4)C2)O1` [Example 3, 5-[(2R,6S)-2-methyl-6-[[3-(4,5,6,7-tetrahydropyrazolo[3,4-c]pyridin-1-yl)azetidin-1-yl]methyl]morpholin-4-yl]quinoline-8-carbonitrile], the IC50 turned out to be 0.006 µM.

In the case of `C[C@@H]1CN(c2ccc(C#N)c3ncccc23)C[C@H](CN2CC(n3cc4c(n3)CN[C@@H](C)C4)C2)O1` (single isomer, unassigned) [Example 29], the IC50 worked out at 0.011 µM. In the case of `C[C@@H]1CN(c2ccc(C#N)c3ncccc23)C[C@H](CN2CC(n3cc4c(n3)[C@H](C)NCC4)C2)O1` (single isomer, unassigned) [Example 34] it was 0.016 µM.
